Data taken from publication PMC10510154 (ACS Chemical Biology, 2023).
pIC50: −log10 of the molar value.

Key:
UCHL1 = target: T1, UCHL1 (Homo sapiens, UniProt P09936); experiment: In vitro DUB selectivity panel, ubiquitin substrate cleavage assay; assay type: biochemical; settings: marginal inhibition
T1 construct: UCHL1 FL (1-223); made in house
T1 sequence (P09936 1-223): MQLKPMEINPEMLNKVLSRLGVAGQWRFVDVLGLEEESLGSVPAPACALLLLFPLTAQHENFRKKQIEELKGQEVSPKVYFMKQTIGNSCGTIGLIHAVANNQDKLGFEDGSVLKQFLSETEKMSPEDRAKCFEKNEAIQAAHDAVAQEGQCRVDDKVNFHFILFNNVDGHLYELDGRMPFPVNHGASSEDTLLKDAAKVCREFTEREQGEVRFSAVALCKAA
Method: (§1) After having determined the (1S,2S) configuration as the preferred stereoisomer, we turned our attention to the aromatic ring substituents to further improve the compound potency. Applying the same chemo-enzymatic strategy described above, a panel of aryl substituted trans (1S,2S) cyclopropane compounds 7–10 were generated having a methyl (7–9) or fluorine (10) substituent at different positions on the aromatic ring. The compounds were tested for their OTUB2 inhibitory potency using the assay as described above (Table 1, Figure S1A). […] Since these compounds are all covalent, irreversible inhibitors,[15] the IC50 depends on the incubation time. To get a better estimate of their respective inhibitory capacity, independent of incubation time, we determined the kinact/KI values of compounds 5–10 by pre-mixing the compounds with the substrate before adding OTUB2. […] The in vitro selectivity of LN5P45 for OTUB2 was assessed using a panel containing six DUBs from the OTU family, including its closest family members OTUB1, OTUD1, OTUD2, OTUD3, OTUD6B, and Cezanne, and two DUBs from outside this family, UCHL1 and USP16 (Figure S2, Table S1).
(§2) The assays were performed in “nonbinding surface flat bottom low flange” black 384-well plates (Corning 3820) at room temperature in a buffer containing 50 mM Tris·HCl, 100 mM NaCl, pH 7.6, 2.0 mM cysteine, 1 mg/mL 3-[(3-cholamidopropyl)-dimethylammonio]propanesulfonic acid (CHAPS), and 0.5 mg/mL γ-globulins from bovine blood (BGG). All dispensing steps involving buffered solutions were performed on a Biotek MultiFlowFX dispenser. […] The compounds were dissolved in 10 mM and 1 mM DMSO stock solutions, and appropriate volumes were transferred to the empty plates using a Labcyte Echo acoustic dispenser to obtain a 12-point serial dilution. […] A 3 μL portion of the substrate (UbRhoMP, or K48-linked diUb FRET pair[35] for OTUB1) was added (final concentration 500 nM), and the increase in fluorescence over time was recorded using a BMG Labtech PHERAstar plate reader (excitation 487 nm, emission 535 nm).

USP16 = target: T2, USP16 (Homo sapiens, UniProt Q9Y5T5); experiment: as above; assay type: biochemical; settings: marginal inhibition
T2 construct: USP16 FL (22-823); His-tag (N); made in house
T2 sequence (Q9Y5T5 22-823): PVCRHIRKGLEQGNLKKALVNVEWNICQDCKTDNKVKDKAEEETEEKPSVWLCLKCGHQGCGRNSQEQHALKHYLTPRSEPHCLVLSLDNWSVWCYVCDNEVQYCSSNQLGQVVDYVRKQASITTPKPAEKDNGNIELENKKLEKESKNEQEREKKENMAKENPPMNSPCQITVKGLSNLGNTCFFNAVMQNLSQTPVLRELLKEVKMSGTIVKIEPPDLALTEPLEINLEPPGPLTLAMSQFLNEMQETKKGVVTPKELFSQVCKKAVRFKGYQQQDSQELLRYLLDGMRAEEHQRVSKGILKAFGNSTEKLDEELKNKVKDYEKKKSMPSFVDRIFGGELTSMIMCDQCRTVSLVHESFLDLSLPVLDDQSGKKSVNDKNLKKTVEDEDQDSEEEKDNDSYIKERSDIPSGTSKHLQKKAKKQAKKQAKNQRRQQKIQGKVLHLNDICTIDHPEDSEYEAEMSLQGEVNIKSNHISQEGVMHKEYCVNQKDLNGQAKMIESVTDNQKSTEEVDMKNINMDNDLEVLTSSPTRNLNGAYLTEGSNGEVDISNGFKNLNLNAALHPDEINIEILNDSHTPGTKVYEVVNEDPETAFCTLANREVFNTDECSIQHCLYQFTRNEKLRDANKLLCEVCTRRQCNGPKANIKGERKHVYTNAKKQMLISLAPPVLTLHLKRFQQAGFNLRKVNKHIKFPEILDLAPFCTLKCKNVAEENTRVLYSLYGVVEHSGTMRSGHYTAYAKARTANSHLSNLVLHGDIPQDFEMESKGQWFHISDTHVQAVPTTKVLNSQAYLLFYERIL
Method: as §1, §2

OTUD3 = target: T3, OTUD3 (Homo sapiens, UniProt Q5T2D3); experiment: as above; assay type: biochemical
T3 construct: OTUD3 FL (1-398) GST, cleaved Q5T2D3; GST (cleaved yes); purchased Ubiquigent DUBscan Kit 67-0006-001
T3 sequence (Q5T2D3 1-398): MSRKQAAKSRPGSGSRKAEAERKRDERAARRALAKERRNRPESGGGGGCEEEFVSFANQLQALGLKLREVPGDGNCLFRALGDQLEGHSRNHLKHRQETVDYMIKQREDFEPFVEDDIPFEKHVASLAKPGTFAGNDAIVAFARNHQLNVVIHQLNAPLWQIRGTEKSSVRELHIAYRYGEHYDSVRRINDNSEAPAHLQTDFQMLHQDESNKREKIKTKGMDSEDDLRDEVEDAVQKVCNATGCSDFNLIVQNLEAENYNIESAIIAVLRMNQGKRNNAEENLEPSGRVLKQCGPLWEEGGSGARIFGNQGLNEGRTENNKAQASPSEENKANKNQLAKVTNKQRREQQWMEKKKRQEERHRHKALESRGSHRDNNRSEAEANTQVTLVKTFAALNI
Method: as §1, §2

[1] = test system: OTUB1, OTUD1, OTUD2, OTUD3, OTUD6B, Cezanne, UCHL1 and USP16; experiment: In vitro DUB selectivity panel, ubiquitin substrate cleavage assay (whole panel); assay type: biochemical, human; settings: at concentrations up to 150 μM
Method: as §1, with “S1). […]” for “S1).”

[2] = test system: reactive cysteine sites in HeLa cells expressing GFP or GFP-OTUB2; experiment: SLC-ABPP profiling of LN5P45-reactive cysteines with DBIA probe; assay type: cell-based, Homo sapiens; settings: 10 μM for 4 h, 10,670 cysteine peptides detected
Method: Reduced disulfide bonds were alkylated using 20 mM iodoacetamide for 30 min in the dark at RT.

pIC50 (UCHL1): < 4.00
pIC50 (USP16): < 4.00
pIC50 (OTUD3): 4.25
SMILES: Cc1cccc([C@H]2C[C@@H]2C(=O)NNC(=O)CCl)c1 [Compound 8]
Inhibition of most DUBs of the panel [1]: not inhibited
Number of proteins not involved in ubiquitination with inhibited DBIA probe binding [2]: seven
